Assay results: US6916812B2, “Alpha-aminoamide derivatives as melanocortin agonists” (Bristol-Myers Squibb Company, priority 2001, dated 2005)
pIC50: −log10 of the molar value. Like-named read-outs stand apart in the source and are kept apart here.

Target: T1, cloned human MC4R (Homo sapiens, UniProt P32245)
T1 construct: made in house; host or cells: Hi5 insect cells (baculovirus infection); membrane preparation
Experiment: Membrane binding assay: competitive inhibition of [125I]NDP-α-MSH binding
Settings: for inhibition at 10 µM: read-out: Displacement Rate (%) (at 10 μM); for pIC50: read-out: MC4R IC50
Experimental: Hi5 cells are infected using the following protocol: Cells at a density of 1×10^6 cells/mL are spun down at 1000 rpm (Beckman GS-6KR centrifuge) for 10 minutes. Cells are resuspended in 10% of their original volume in a sterile 50 mL conical centrifuge tube wrapped with aluminum foil. Virus is added at a Multiplicity of Infection (MOI) of 3 and incubated for 1 hour at room temperature with gentle shaking. […] Cells are spun down in 50 mL conical centrifuge tubes at 1000 rpm for 10 minutes. Each of the resulting pellets are resuspended in 10 mL of cold (4° C.) membrane buffer (25 mM HEPES, pH 7.4, 140 mM NaCl, 1.2 mM MgCl2, 2.5 mM CaCl2, 10 μG/mL Aprotinin, 10 μG/mL Leupeptin) and Dounce homogenized using 10-12 strokes. […] The resulting pellet is resuspended in cold membrane buffer in a total of ¼ of the original volume by vortexing and aspiration using a syringe and 27 gauge needle. Protein content is determined (Bradford, Bio-Rad Protein Assay). Membranes are aliquoted in microcentrifuge tubes and quick frozen in liquid nitrogen. Store at −80° C. until use. The membrane binding buffer is composed of 25 mM HEPES, pH 7.4, 140 mM NaCl, 1.2 mM MgCl2, 2.5 mM CaCl2, 0.1% BSA. […] The mixture is filtered with Brandel Microplate 96 filter apparatus using 96-well GF/B filter presoaked in 1-% polyethyleneimine (Sigma). The filter is washed (4 times with a total of 1 mL per well) with cold wash buffer consisting of 20 mM HEPES, pH 7.4, 5 mM MgCl2. […] 100 μl of Wallac Optiphase Supermix scintillation fluid is added to each well. The top is sealed and the plates are shaken to insure that the filters are thoroughly soaked with fluid. […] Dose-response curves are fitted by […] analyses and IC50 values are calculated using ExcelFit.

[1] = at 10 μM, [125I]NDP-α-MSH displacement

T1 sequence (P32245 whole entry): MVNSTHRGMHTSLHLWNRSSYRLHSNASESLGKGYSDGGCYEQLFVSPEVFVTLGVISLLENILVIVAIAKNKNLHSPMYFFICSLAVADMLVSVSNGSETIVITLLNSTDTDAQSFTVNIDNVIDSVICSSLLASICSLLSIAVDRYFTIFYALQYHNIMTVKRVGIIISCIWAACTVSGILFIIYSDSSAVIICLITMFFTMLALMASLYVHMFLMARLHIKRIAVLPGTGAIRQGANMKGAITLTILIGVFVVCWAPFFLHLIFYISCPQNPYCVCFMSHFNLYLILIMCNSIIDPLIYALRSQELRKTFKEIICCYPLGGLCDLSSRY

inhibition at 10 µM [1] | pIC50 | Compound | inhibition at 10 µM
91 to 100% | > 5.82 | N[C@@H](Cc1ccc(OCc2ccccc2)cc1)C(=O)N1CCCN(Cc2ccc(C(c3ccccc3)c3ccccc3)cc2)CC1 [Example 1] | –
91 to 100% | 5.52 to 5.82 | N[C@@H](Cc1ccc(OCc2ccccc2)cc1)C(=O)N1CCCN(Cc2ccccc2Sc2ccc(Cl)cc2)CC1 [Example 2] | –
91 to 100% | > 5.82 | CCn1c2ccccc2c2cc(CN3CCCN(C(=O)[C@@H](N)Cc4ccc(OCc5ccccc5)cc4)CC3)ccc21 [Example 3] | –
91 to 100% | > 5.82 | N[C@@H](Cc1ccc(OCc2ccccc2)cc1)C(=O)N1CCCN(Cc2cccc(Oc3cc(Cl)cc(Cl)c3)c2)CC1 [Example 4] | –
91 to 100% | 5.52 to 5.82 | N[C@@H](Cc1ccc(OCc2ccccc2)cc1)C(=O)N1CCCN(Cc2ccc(-c3ccc(Cl)cc3)o2)CC1 [Example 6] | –
91 to 100% | 5.52 to 5.82 | N[C@@H](Cc1ccc(OCc2ccccc2)cc1)C(=O)N1CCCN(Cc2ccc(-c3ccccc3)cc2)CC1 [Example 8] | –
91 to 100% | > 5.82 | N[C@@H](Cc1ccc(OCc2ccccc2)cc1)C(=O)N1CCCN(Cc2cn(Cc3ccccc3)c3ccccc23)CC1 [Example 9] | –
91 to 100% | 5.52 to 5.82 | N[C@@H](Cc1ccc(OCc2ccccc2)cc1)C(=O)N1CCCN(Cc2ccc3c(c2)Cc2ccccc2-3)CC1 [Example 10] | –
91 to 100% | > 5.82 | N[C@@H](Cc1ccc(OCc2ccccc2)cc1)C(=O)N1CCCN(Cc2ccc(/C=C/c3ccccc3)cc2)CC1 [Example 11] | –
91 to 100% | > 5.82 | N[C@@H](Cc1ccc(OCc2ccccc2)cc1)C(=O)N1CCCN(Cc2cc(OCc3ccccc3)cc(OCc3ccccc3)c2)CC1 [Example 12] | –
91 to 100% | 5.52 to 5.82 | N[C@@H](Cc1ccc(OCc2ccccc2)cc1)C(=O)N1CCCN(Cc2ccc(OCc3ccccc3)cc2)CC1 [Example 13] | –
91 to 100% | > 5.82 | CCCCCCCCOc1ccc(CN2CCCN(C(=O)[C@@H](N)Cc3ccc(OCc4ccccc4)cc3)CC2)cc1 [Example 14] | –
91 to 100% | 5.52 to 5.82 | COc1cc(CN2CCCN(C(=O)[C@@H](N)Cc3ccc(OCc4ccccc4)cc3)CC2)ccc1OCc1ccc([N+](=O)[O-])cc1 [Example 15] | –
91 to 100% | > 5.82 | N[C@@H](Cc1ccc(OCc2ccccc2)cc1)C(=O)N1CCCN(Cc2cccc(Oc3cccc(C(F)(F)F)c3)c2)CC1 [Example 16] | –
91 to 100% | 5.52 to 5.82 | N[C@@H](Cc1ccc(OCc2ccccc2)cc1)C(=O)N1CCCN(Cc2ccc(Cl)c(Cl)c2)CC1 [Example 17] | –
91 to 100% | > 5.82 | Cc1ccc(S(=O)(=O)n2cc(CN3CCCN(C(=O)[C@@H](N)Cc4ccc(OCc5ccccc5)cc4)CC3)c3ccccc32)cc1 [Example 18] | –
91 to 100% | > 5.82 | N[C@@H](Cc1ccc(OCc2ccccc2)cc1)C(=O)N1CCCN(Cc2cccc(Oc3ccc(Cl)c(Cl)c3)c2)CC1 [Example 19] | –
91 to 100% | 5.52 to 5.82 | N[C@@H](Cc1ccc(OCc2ccccc2)cc1)C(=O)N1CCCN(Cc2ccc(-c3cccc([N+](=O)[O-])c3)o2)CC1 [Example 21] | –
91 to 100% | < 5.52 | N[C@@H](Cc1ccc(OCc2ccccc2)cc1)C(=O)N1CCCN(Cc2ccccc2C(F)(F)F)CC1 [Example 22] | –

inhibition at 10 µM [1] | pIC50 | Compound | inhibition at 10 µM
91 to 100% | < 5.52 | N[C@@H](Cc1ccc(OCc2ccccc2)cc1)C(=O)N1CCCN(CC(c2ccccc2)c2ccccc2)CC1 [Example 23] | –
91 to 100% | > 5.82 | CCOc1ccc(CN2CCCN(C(=O)[C@@H](N)Cc3ccc(OCc4ccccc4)cc3)CC2)c(OCC)c1C [Example 24] | –
91 to 100% | > 5.82 | N[C@@H](Cc1ccc(OCc2ccccc2)cc1)C(=O)N1CCCN(Cc2ccc(C(F)(F)F)cc2)CC1 [Example 25] | –
71 to 90% | 5.52 to 5.82 | CC(C)(C)c1cc(CN2CCCN(C(=O)[C@@H](N)Cc3ccc(OCc4ccccc4)cc3)CC2)cc(C(C)(C)C)c1O [Example 26] | –
71 to 90% | > 5.82 | N[C@@H](Cc1ccc(OCc2ccccc2)cc1)C(=O)N1CCCN(Cc2ccc(OCc3ccc([N+](=O)[O-])cc3)cc2)CC1 [Example 27] | –
71 to 90% | < 5.52 | N[C@@H](Cc1ccc(OCc2ccccc2)cc1)C(=O)N1CCCN(Cc2ccc(C(F)(F)F)cc2F)CC1 [Example 28] | –
71 to 90% | 5.52 to 5.82 | COc1cc(CN2CCCN(C(=O)[C@@H](N)Cc3ccc(OCc4ccccc4)cc3)CC2)ccc1OCc1ccccc1 [Example 29] | –
71 to 90% | 5.52 to 5.82 | COc1cc(OC)c(CN2CCCN(C(=O)[C@@H](N)Cc3ccc(OCc4ccccc4)cc3)CC2)cc1Br [Example 31] | –
71 to 90% | > 5.82 | CCCCCOc1ccc(CN2CCCN(C(=O)[C@@H](N)Cc3ccc(OCc4ccccc4)cc3)CC2)cc1 [Example 32] | –
71 to 90% | 5.52 to 5.82 | N[C@@H](Cc1ccc(OCc2ccccc2)cc1)C(=O)N1CCCN(Cc2ccc(Oc3ccccc3)cc2)CC1 [Example 33] | –
71 to 90% | 5.52 to 5.82 | CCCCc1ccc(CN2CCCN(C(=O)[C@@H](N)Cc3ccc(OCc4ccccc4)cc3)CC2)cc1 [Example 35] | –
71 to 90% | < 5.52 | Cc1ccc(C)c(CN2CCCN(C(=O)[C@@H](N)Cc3ccc(OCc4ccccc4)cc3)CC2)c1 [Example 36] | –
71 to 90% | < 5.52 | N[C@@H](Cc1ccc(OCc2ccccc2)cc1)C(=O)N1CCCN(Cc2ccnc3ccccc23)CC1 [Example 37] | –
71 to 90% | < 5.52 | CCc1ccc(CN2CCCN(C(=O)[C@@H](N)Cc3ccc(OCc4ccccc4)cc3)CC2)cc1 [Example 38] | –
71 to 90% | 5.52 to 5.82 | CC(C)(C)c1ccc(CN2CCCN(C(=O)[C@@H](N)Cc3ccc(OCc4ccccc4)cc3)CC2)cc1 [Example 39] | –
71 to 90% | < 5.52 | CCOc1cccc(CN2CCCN(C(=O)[C@@H](N)Cc3ccc(OCc4ccccc4)cc3)CC2)c1O [Example 40] | –
71 to 90% | < 5.52 | N[C@@H](Cc1ccc(OCc2ccccc2)cc1)C(=O)N1CCCN(C2CCC(c3ccccc3)CC2)CC1 (stereo partly shown) [Example 41] | –
71 to 90% | < 5.52 | N[C@@H](Cc1ccc(OCc2ccccc2)cc1)C(=O)N1CCCN(CCCc2ccccc2)CC1 [Example 42] | –
71 to 90% | 5.52 to 5.82 | COc1ccc2ccccc2c1CN1CCCN(C(=O)[C@@H](N)Cc2ccc(OCc3ccccc3)cc2)CC1 [Example 43] | –

Compound | inhibition at 10 µM [1] | pIC50 | inhibition at 10 µM
N[C@@H](Cc1ccc(OCc2ccccc2)cc1)C(=O)N1CCCN(Cc2c3ccccc3cc3ccccc23)CC1 [Example 20] | – | < 5.52 | 91 to 100%
N[C@@H](Cc1ccc(OCc2ccccc2)cc1)C(=O)N1CCCN(C2CCc3ccccc3C2)CC1 (stereo partly shown) [Example 30] | – | < 5.52 | 71 to 90%
N[C@@H](Cc1ccc(OCc2ccccc2)cc1)C(=O)N1CCCN(Cc2cc([N+](=O)[O-])ccc2Cl)CC1 [Example 34] | – | < 5.52 | 71 to 90%
